Data taken from patent publication US11434242B2, “Dopamine-b-hydroxylase inhibitors” (BIAL-PORTELA & Cª, S.A., priority 2017, dated 2022).
Where a name gives a salt, the structure may show the parent alone.

Columns and labels:
DβH = biological target: T1, DβH (Homo sapiens, UniProt P09172); test: DβH inhibition assay in SK-N-SH cellular homogenates (tyramine to octopamine); type: biochemical; settings: SK-N-SH cell homogenate; for SKNSH (1 μM), activity in % of control: inhibitor 1 μM; for SKNSH (0.1 μM), activity in % of control: inhibitor 0.1 μM
T1 construct: cellular homogenate (75 μg total protein); host or cells: SK-N-SH cells (homogenate)
T1 sequence (P09172 1-617): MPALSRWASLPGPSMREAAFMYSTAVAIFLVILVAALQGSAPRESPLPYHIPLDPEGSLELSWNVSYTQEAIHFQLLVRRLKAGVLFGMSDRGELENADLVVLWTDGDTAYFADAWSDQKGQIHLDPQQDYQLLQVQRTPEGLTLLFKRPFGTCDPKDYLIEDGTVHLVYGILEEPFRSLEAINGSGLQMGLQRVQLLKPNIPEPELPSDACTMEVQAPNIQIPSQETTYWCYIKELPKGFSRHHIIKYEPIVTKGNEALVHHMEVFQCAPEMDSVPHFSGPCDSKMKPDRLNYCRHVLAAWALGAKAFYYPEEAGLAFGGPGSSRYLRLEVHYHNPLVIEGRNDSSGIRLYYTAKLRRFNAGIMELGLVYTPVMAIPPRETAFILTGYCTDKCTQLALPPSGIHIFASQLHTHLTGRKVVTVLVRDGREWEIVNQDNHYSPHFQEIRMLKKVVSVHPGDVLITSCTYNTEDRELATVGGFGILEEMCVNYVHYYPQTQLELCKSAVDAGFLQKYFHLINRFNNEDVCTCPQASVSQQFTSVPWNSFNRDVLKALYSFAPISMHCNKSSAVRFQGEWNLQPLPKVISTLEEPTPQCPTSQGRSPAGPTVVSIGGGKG

[1] = biological target: T2, Dopamine beta hydroxylase (Homo sapiens, UniProt P09172); test: Dopamine beta hydroxylase activity in human plasma; type: biochemical; settings: for Plasma (0.01 μM), activity in % of control: inhibitor 0.01 μM; for Plasma (0.1 μM), activity in % of control: inhibitor 0.1 μM
T2 construct: 125 μl of plasma; tissue Instituto Português do Sangue Transplantação; host or cells: human plasma from healthy donors
T2 sequence (P09172 40-617 limits assumed): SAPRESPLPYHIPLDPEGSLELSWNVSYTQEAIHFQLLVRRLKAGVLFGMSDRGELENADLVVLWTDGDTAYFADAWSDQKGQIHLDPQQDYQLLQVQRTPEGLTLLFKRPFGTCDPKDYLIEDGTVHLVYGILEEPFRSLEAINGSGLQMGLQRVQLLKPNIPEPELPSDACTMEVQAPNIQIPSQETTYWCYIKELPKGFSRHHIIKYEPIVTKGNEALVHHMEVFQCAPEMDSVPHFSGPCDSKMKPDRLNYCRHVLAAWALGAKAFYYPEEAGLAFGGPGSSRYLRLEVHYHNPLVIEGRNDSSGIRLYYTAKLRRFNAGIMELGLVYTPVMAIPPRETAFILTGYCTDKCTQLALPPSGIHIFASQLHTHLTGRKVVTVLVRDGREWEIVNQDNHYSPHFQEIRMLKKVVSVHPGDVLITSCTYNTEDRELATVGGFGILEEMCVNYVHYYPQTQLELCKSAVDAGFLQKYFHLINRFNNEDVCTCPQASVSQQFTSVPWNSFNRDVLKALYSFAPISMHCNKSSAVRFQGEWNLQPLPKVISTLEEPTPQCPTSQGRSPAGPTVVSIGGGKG
Summary of the method: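 Octopamine production from tyramine over 45 min at 37° C, measured photometrically at 330 nm after SCX extraction and periodate oxidation against an octopamine standard curve, indicates plasma DβH activity. Compounds tested at final 10, 100 and 1000 nM in human plasma, pH 5.0 cofactor buffer, 10 min preincubation; results as % of control.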

Compound | SKNSH (1 μM), activity in % of control (DβH) | other results
CCOC(=O)Cc1[nH]c(=S)n2c1C[C@@H](c1cc(F)cc(F)c1)C2 [Example 1, (S)-ethyl 2-(6-(3,5-difluorophenyl)-3-thioxo-3,5,6,7-tetrahydro-2H-pyrrolo[1,2-c]imidazol-1-yl)acetate] | 37.9 % of control | 
CCOC(=O)Cc1[nH]c(=S)n2c1C[C@@H](c1cc(F)ccc1F)C2 [Example 2, (S)-ethyl 2-(6-(2,5-difluorophenyl)-3-thioxo-3,5,6,7-tetrahydro-2H-pyrrolo[1,2-c]imidazol-1-yl)acetate] | 49.3 % of control | 
O=C(O)Cc1[nH]c(=S)n2c1C[C@@H](c1cc(F)ccc1F)C2 [Example 3, (S)-2-(6-(2,5-difluorophenyl)-3-thioxo-3,5,6,7-tetrahydro-2H-pyrrolo[1,2-c]imidazol-1-yl)acetic Acid] | 35.8 % of control | 
COC(=O)Cc1[nH]c(=S)n2c1[C@@H]1C[C@]1(c1cc(F)ccc1F)C2 [Example 4, Methyl 2-((5aS,6aR)-5a-(2,5-difluorophenyl)-3-thioxo-2,3,5,5a,6,6a-hexahydrocyclopropa[3,4]pyrrolo[1,2-c]imidazol-1-yl)acetate] | 20.3 % of control | 
COC(=O)Cc1[nH]c(=S)n2c1[C@@H]1C[C@]1(c1cc(F)cc(F)c1)C2 [Example 5, Methyl 2-((5aS,6aR)-5a-(3,5-difluorophenyl)-3-thioxo-2,3,5,5a,6,6a-hexahydrocyclopropa[3,4]pyrrolo[1,2-c]imidazol-1-yl)acetate] | 19.9 % of control | 
O=C(O)Cc1[nH]c(=S)n2c1[C@@H]1C[C@]1(c1cc(F)ccc1F)C2 [Example 6, 2-((5aS,6aR)-5a-(2,5-difluorophenyl)-3-thioxo-2,3,5,5a,6,6a-hexahydrocyclopropa[3,4]pyrrolo[1,2-c]imidazol-1-yl)acetic Acid] | 3.7 % of control | SKNSH (0.1 μM), activity in % of control (DβH): 36.9 % of control
O=C(O)Cc1[nH]c(=S)n2c1[C@@H]1C[C@]1(c1cc(F)cc(F)c1)C2 [Example 7, 2-((5aS,6aR)-5a-(3,5-difluorophenyl)-3-thioxo-2,3,5,5a,6,6a-hexahydrocyclopropa[3,4]pyrrolo[1,2-c]imidazol-1-yl)acetic Acid] | 3.6 % of control | SKNSH (0.1 μM), activity in % of control (DβH): 45.6 % of control
OCCc1[nH]c(=S)n2c1[C@@H]1C[C@]1(c1cc(F)cc(F)c1)C2 [Example 8, (5aS,6aR)-5a-(3,5-difluorophenyl)-1-(2-hydroxyethyl)-5,5a,6,6a-tetrahydrocyclopropa[3,4]pyrrolo[1,2-c]imidazole-3(2H)-thione] | 15.3 % of control | 
O=C(Cc1[nH]c(=S)n2c1C[C@@H](c1cc(F)cc(F)c1)C2)N1CCOCC1 [Example 9, (S)-2-(6-(3,5-difluorophenyl)-3-thioxo-3,5,6,7-tetrahydro-2H-pyrrolo[1,2-c]imidazol-1-yl)-1-morpholinoethanone] | 54.9 % of control | 
O=C(O)Cc1[nH]c(=S)n2c1C[C@@H](c1c(F)c(F)cc(F)c1F)C2 [Example 10, (S)-2-(6-(2,3,5,6-tetrafluorophenyl)-3-thioxo-3,5,6,7-tetrahydro-2H-pyrrolo[1,2-c]imidazol-1-yl)acetic Acid] | 2.1 % of control | SKNSH (0.1 μM), activity in % of control (DβH): 46.4 % of control
O=C(O)Cc1[nH]c(=S)n2c1C[C@@H](c1cc(F)cc(F)c1)C2 [Example 11, (S)-2-(6-(3,5-difluorophenyl)-3-thioxo-3,5,6,7-tetrahydro-2H-pyrrolo[1,2-c]imidazol-1-yl)acetic Acid] | 28.5 % of control | 
N#CNC(=O)Cc1[nH]c(=S)n2c1C[C@@H](c1c(F)c(F)cc(F)c1F)C2 [Example 19, (S)—N-cyano-2-(6-(2,3,5,6-tetrafluorophenyl)-3-thioxo-3,5,6,7-tetrahydro-2H-pyrrolo[1,2-c]imidazol-1-yl)acetamide] | 16.4 % of control | 
NC(=O)Cc1[nH]c(=S)n2c1[C@@H]1C[C@]1(c1cc(F)cc(F)c1)C2 [Example 33, 2-((5aS,6aR)-5a-(3,5-difluorophenyl)-3-thioxo-2,3,5,5a,6,6a-hexahydrocyclopropa[3,4]pyrrolo[1,2-c]imidazol-1-yl)acetamide] | 33.4 % of control | 
NCCc1[nH]c(=S)n2c1[C@@H]1C[C@]1(c1cc(F)cc(F)c1)C2 [Example 35, (5aS,6aR)-1-(2-aminoethyl)-5a-(3,5-difluorophenyl)-5,5a,6,6a-tetrahydrocyclopropa[3,4]pyrrolo[1,2-c]imidazole-3(2H)-thione Hydrochloride] | 45.9 % of control | 
N#CCc1[nH]c(=S)n2c1[C@@H]1C[C@]1(c1cc(F)ccc1F)C2 [Example 36, 2-((5aS,6aR)-5a-(2,5-difluorophenyl)-3-thioxo-2,3,5,5a,6,6a-hexahydrocyclopropa[3,4]pyrrolo[1,2-c]imidazol-1-yl)acetonitrile] | 50.1 % of control | 
CN(Cc1ccccc1)C(=O)Cc1[nH]c(=S)n2c1[C@@H]1C[C@]1(c1cc(F)ccc1F)C2 [Example 37, N-benzyl-2-((5aS,6aR)-5a-(2,5-difluorophenyl)-3-thioxo-2,3,5,5a,6,6a-hexahydrocyclopropa[3,4]pyrrolo[1,2-c]imidazol-1-yl)-N-methylacetamide] | 15.7 % of control | 
CCCCN(C)C(=O)Cc1[nH]c(=S)n2c1[C@@H]1C[C@]1(c1cc(F)ccc1F)C2 [Example 38, N-butyl-2-((5aS,6aR)-5a-(2,5-difluorophenyl)-3-thioxo-2,3,5,5a,6,6a-hexahydrocyclopropa[3,4]pyrrolo[1,2-c]imidazol-1-yl)-N-methylacetamide] | 20.9 % of control | 
CCCCN(C)CCc1[nH]c(=S)n2c1[C@@H]1C[C@]1(c1cc(F)ccc1F)C2.Cl [Example 39, (5aS,6aR)-1-(2-(butyl(methyl)amino)ethyl)-5a-(2,5-difluorophenyl)-5,5a,6,6a-tetrahydrocyclopropa[3,4]pyrrolo[1,2-c]imidazole-3(2H)-thione Hydrochloride] | 29.8 % of control | 
Cl.Fc1ccc(F)c([C@H]2Cc3c(CCNC[C@@H]4CCCO4)[nH]c(=S)n3C2)c1F [Example 475, (R)-1-(2-((((S)-tetrahydrofuran-2-yl)methyl)amino)ethyl)-6-(2,3,6-trifluorophenyl)-2,5,6,7-tetrahydro-3H-pyrrolo[1,2-c]imidazole-3-thione hydrochloride] |  | Plasma (0.01 μM), activity in % of control [1]: 85.0 % of control; Plasma (0.1 μM), activity in % of control [1]: 67.0 % of control
Cn1c(CCNC(C)(C)C)c2n(c1=S)C[C@@H](c1c(F)ccc(F)c1F)C2 [Example 476, (R)-1-(2-(tert-butylamino)ethyl)-2-methyl-6-(2,3,6-trifluorophenyl)-2,5,6,7-tetrahydro-3H-pyrrolo[1,2-c]imidazole-3-thione Hydrofluoride] |  | Plasma (0.01 μM), activity in % of control [1]: 94.3 % of control; Plasma (0.1 μM), activity in % of control [1]: 64.8 % of control
Cl.Cn1c(CCNCC2CCOCC2)c2n(c1=S)C[C@@H](c1c(F)ccc(F)c1F)C2 [Example 477, (R)-2-methyl-1-(2-(((tetrahydro-2H-pyran-4-yl)methyl)amino)ethyl)-6-(2,3,6-trifluorophenyl)-2,5,6,7-tetrahydro-3H-pyrrolo[1,2-c]imidazole-3-thione hydrochloride] |  | Plasma (0.01 μM), activity in % of control [1]: 84.6 % of control; Plasma (0.1 μM), activity in % of control [1]: 59.4 % of control
Fc1ccc(F)c([C@H]2Cc3c(CCCN4CCCC4)[nH]c(=S)n3C2)c1F [Example 478, (R)-1-(3-(pyrrolidin-1-yl)propyl)-6-(2,3,6-trifluorophenyl)-2,5,6,7-tetrahydro-3H-pyrrolo[1,2-c]imidazole-3-thione hydrofluoride] |  | Plasma (0.01 μM), activity in % of control [1]: 46.7 % of control; Plasma (0.1 μM), activity in % of control [1]: 5.1 % of control
